According to the supplement of paper PMC6315032:

Assays:
Experiment in all cases: apparent dissociation constant (pKDapp, Kinobeads competition, Cheng-Prusoff corrected) (-log10 M); higher = tighter binding
ACVR1 = ACVR1 (UniProt Q04771); conditions: affinity matrix / lysate: Kinobeads, mixed HEK293/K-562/placenta lysate
ACVR1B = ACVR1B (UniProt P36896); conditions: affinity matrix / lysate: Kinobeads, mixed HEK293/K-562/placenta lysate
BTK = BTK (UniProt Q06187); conditions: affinity matrix / lysate: Kinobeads, mixed HEK293/K-562/placenta lysate
CDK5 = CDK5 (UniProt Q00535); conditions: affinity matrix / lysate: Kinobeads, mixed HEK293/K-562/placenta lysate
CLK1 = CLK1 (UniProt P49759); conditions: affinity matrix / lysate: Kinobeads, mixed HEK293/K-562/placenta lysate
CSNK2A1 = CSNK2A1 (UniProt P68400)
Sequence of CSNK2A1 (P68400 whole entry, looked up): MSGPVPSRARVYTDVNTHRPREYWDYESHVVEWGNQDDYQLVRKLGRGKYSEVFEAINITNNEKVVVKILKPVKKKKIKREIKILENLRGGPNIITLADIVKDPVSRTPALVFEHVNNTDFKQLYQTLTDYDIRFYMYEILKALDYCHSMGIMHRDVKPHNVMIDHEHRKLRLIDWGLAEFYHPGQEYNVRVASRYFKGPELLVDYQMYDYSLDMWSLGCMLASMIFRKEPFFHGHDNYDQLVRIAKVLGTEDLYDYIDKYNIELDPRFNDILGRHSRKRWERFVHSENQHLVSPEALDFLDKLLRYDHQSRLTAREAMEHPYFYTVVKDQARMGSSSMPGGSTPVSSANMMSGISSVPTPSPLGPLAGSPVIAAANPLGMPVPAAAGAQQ

EGFR = EGFR (UniProt P00533); conditions: affinity matrix / lysate: Kinobeads, mixed HEK293/K-562/placenta lysate
EPHA4 = EPHA4 (UniProt P54764); conditions: affinity matrix / lysate: Kinobeads, mixed HEK293/K-562/placenta lysate
EPHB1 = EPHB1 (UniProt P54762); conditions: affinity matrix / lysate: Kinobeads, mixed HEK293/K-562/placenta lysate
EPHB4 = EPHB4 (UniProt P54760); conditions: affinity matrix / lysate: Kinobeads, mixed HEK293/K-562/placenta lysate
ERBB4 = ERBB4 (UniProt Q15303); conditions: affinity matrix / lysate: Kinobeads, mixed HEK293/K-562/placenta lysate
LYN = LYN (UniProt P07948); conditions: affinity matrix / lysate: Kinobeads, mixed HEK293/K-562/placenta lysate
MAP2K2 = MAP2K2 (UniProt P36507); conditions: affinity matrix / lysate: Kinobeads, mixed HEK293/K-562/placenta lysate
MAP2K3 = MAP2K3 (UniProt P46734); conditions: affinity matrix / lysate: Kinobeads, mixed HEK293/K-562/placenta lysate
MAP3K3 = MAP3K3 (UniProt Q99759); conditions: affinity matrix / lysate: Kinobeads, mixed HEK293/K-562/placenta lysate
MAPK3 = MAPK3 (UniProt P27361); conditions: affinity matrix / lysate: Kinobeads, mixed HEK293/K-562/placenta lysate
MAPK8 = MAPK8 (UniProt P45983); conditions: affinity matrix / lysate: Kinobeads, mixed HEK293/K-562/placenta lysate
MARK2 = MARK2 (UniProt Q7KZI7); conditions: affinity matrix / lysate: Kinobeads, mixed HEK293/K-562/placenta lysate
MARK3 = MARK3 (UniProt P27448); conditions: affinity matrix / lysate: Kinobeads, mixed HEK293/K-562/placenta lysate
Sequence of MARK3 (P27448 whole entry, looked up): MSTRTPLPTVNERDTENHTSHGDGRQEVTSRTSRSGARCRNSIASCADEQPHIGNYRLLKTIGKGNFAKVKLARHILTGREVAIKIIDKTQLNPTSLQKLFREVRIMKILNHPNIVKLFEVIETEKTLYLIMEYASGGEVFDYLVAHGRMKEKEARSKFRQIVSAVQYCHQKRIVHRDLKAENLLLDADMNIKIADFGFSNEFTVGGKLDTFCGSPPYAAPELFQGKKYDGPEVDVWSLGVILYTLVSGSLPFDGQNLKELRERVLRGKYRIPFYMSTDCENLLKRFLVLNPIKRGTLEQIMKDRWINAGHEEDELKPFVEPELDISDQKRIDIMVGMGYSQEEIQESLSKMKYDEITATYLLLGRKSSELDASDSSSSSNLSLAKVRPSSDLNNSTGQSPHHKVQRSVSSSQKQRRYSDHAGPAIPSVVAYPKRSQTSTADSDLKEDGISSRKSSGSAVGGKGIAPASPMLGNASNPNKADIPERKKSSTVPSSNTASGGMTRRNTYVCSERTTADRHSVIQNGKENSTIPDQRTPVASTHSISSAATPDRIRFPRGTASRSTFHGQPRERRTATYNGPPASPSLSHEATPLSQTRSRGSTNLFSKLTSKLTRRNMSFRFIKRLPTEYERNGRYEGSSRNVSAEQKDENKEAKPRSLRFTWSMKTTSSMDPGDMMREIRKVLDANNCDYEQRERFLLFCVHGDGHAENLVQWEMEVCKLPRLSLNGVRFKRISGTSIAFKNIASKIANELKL

PCTK2 = PCTK2 (UniProt Q00537); conditions: affinity matrix / lysate: Kinobeads, mixed HEK293/K-562/placenta lysate
PI4KA = PI4KA (UniProt P42356)
Sequence of PI4KA (P42356 whole entry, looked up): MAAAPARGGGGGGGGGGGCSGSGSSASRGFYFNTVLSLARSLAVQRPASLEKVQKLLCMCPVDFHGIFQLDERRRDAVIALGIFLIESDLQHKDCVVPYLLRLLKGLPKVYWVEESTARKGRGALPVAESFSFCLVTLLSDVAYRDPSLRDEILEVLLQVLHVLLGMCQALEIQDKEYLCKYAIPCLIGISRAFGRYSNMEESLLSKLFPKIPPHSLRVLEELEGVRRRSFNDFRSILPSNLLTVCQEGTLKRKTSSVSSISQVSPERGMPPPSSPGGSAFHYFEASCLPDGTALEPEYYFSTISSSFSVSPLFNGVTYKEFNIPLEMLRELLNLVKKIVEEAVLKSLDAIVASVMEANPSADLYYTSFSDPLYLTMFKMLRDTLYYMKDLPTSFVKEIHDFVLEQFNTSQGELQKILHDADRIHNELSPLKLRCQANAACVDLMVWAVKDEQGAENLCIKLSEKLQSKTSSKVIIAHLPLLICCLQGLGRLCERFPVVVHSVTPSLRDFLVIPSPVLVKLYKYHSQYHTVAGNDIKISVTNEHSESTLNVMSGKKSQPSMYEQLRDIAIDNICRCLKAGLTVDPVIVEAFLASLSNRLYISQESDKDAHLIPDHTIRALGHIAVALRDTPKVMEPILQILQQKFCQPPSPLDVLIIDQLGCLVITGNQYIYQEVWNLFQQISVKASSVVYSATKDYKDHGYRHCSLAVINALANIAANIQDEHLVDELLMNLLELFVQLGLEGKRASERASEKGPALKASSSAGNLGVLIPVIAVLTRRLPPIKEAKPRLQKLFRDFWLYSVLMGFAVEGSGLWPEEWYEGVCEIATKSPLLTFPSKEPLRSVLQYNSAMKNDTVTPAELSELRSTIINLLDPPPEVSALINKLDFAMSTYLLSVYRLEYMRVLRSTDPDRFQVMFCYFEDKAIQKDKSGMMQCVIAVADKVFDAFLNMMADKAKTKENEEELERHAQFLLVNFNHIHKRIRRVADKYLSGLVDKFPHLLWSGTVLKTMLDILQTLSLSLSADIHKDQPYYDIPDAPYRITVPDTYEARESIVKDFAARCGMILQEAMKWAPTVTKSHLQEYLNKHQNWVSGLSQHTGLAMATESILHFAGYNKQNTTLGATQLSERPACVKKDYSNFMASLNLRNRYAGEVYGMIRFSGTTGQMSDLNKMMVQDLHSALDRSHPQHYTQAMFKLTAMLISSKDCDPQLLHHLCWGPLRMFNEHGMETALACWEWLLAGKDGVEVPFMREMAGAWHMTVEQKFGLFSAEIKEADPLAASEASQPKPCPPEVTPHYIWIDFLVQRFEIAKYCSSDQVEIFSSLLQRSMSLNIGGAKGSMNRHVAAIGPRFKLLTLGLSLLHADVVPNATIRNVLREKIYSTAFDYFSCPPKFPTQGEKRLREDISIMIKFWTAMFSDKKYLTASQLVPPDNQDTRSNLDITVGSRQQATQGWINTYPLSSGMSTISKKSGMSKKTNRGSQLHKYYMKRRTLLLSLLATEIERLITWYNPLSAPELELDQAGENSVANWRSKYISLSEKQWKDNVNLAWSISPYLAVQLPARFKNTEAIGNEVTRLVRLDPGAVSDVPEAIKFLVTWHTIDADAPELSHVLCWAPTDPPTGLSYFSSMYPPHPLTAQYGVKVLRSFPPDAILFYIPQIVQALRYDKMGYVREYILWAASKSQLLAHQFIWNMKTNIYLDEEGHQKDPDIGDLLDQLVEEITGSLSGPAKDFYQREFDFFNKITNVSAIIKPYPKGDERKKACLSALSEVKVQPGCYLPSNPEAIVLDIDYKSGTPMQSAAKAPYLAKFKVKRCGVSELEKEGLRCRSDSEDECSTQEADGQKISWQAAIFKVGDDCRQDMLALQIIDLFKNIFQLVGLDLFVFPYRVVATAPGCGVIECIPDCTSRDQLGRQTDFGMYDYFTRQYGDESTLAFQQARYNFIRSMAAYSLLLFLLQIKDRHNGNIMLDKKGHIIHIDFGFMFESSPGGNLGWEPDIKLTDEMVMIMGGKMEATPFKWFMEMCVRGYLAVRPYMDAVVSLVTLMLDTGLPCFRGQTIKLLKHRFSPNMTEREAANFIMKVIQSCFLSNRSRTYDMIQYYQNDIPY

PIK3C2B = PIK3C2B (UniProt O00750)
Sequence of PIK3C2B (O00750 whole entry): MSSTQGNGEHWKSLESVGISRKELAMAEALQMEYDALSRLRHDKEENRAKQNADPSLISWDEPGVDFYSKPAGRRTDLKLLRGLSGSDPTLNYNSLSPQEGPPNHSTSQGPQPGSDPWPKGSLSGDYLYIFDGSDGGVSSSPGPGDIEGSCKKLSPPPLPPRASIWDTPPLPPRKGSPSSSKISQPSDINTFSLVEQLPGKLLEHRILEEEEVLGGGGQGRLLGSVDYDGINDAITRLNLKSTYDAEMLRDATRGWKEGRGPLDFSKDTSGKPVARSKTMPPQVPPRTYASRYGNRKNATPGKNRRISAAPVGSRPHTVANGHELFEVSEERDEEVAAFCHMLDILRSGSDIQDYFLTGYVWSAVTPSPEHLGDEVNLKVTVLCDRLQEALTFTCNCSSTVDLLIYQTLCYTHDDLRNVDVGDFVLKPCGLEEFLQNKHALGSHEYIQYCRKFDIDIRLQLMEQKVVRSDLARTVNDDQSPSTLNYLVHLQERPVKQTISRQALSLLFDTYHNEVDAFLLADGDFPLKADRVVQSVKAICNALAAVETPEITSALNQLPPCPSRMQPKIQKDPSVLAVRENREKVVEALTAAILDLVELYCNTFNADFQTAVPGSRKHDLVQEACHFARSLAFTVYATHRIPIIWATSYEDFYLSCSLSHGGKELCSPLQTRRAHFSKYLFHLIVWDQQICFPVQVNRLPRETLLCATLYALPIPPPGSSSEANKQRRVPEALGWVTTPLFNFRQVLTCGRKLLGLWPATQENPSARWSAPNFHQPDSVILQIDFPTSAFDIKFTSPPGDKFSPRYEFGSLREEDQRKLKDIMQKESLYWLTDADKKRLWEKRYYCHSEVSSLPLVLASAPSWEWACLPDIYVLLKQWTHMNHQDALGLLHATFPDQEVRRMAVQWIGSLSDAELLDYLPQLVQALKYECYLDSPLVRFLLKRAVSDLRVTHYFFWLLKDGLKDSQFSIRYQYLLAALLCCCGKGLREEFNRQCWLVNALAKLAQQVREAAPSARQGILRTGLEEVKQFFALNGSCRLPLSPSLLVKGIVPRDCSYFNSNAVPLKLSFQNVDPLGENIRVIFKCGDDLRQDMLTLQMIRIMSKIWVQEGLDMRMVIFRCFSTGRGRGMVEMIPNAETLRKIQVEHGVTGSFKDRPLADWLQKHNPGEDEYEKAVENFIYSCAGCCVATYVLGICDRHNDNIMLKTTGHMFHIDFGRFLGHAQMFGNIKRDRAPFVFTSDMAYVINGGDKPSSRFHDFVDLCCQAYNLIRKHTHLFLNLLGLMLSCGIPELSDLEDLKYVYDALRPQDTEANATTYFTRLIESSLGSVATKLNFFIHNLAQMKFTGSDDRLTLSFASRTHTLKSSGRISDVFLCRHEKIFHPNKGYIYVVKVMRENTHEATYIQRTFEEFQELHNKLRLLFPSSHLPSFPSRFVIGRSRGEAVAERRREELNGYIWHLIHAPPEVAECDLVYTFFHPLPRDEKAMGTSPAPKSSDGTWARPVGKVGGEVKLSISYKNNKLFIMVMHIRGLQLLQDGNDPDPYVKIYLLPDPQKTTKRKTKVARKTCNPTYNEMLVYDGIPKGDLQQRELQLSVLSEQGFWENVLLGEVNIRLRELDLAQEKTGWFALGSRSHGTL

PIK3CA = PIK3CA (UniProt P42336); conditions: affinity matrix / lysate: Lipid Kinobeads, mixed HeLa/Jurkat/K-562 lysate
PKMYT1 = PKMYT1 (UniProt Q99640); conditions: affinity matrix / lysate: Kinobeads, mixed HEK293/K-562/placenta lysate
PLK4 = PLK4 (UniProt O00444); conditions: affinity matrix / lysate: Kinobeads, mixed HEK293/K-562/placenta lysate
PTK2B = PTK2B (UniProt Q14289); conditions: affinity matrix / lysate: Kinobeads, mixed HEK293/K-562/placenta lysate
RIPK2 = RIPK2 (UniProt O43353); conditions: affinity matrix / lysate: Kinobeads, mixed HEK293/K-562/placenta lysate
RPS6KA2 = RPS6KA2 (UniProt Q15349); conditions: affinity matrix / lysate: Kinobeads, mixed HEK293/K-562/placenta lysate
RPS6KA3 = RPS6KA3 (UniProt P51812); conditions: affinity matrix / lysate: Kinobeads, mixed HEK293/K-562/placenta lysate
STK3 = STK3 (UniProt Q13188); conditions: affinity matrix / lysate: Kinobeads, mixed HEK293/K-562/placenta lysate
TNIK = TNIK (UniProt Q9UKE5); conditions: affinity matrix / lysate: Kinobeads, mixed HEK293/K-562/placenta lysate
YES1 = YES1 (UniProt P07947); conditions: affinity matrix / lysate: Kinobeads, mixed HEK293/K-562/placenta lysate
ZAK = ZAK (UniProt Q9NYL2); conditions: affinity matrix / lysate: Kinobeads, mixed HEK293/K-562/placenta lysate
[1] = affinity matrix / lysate: Kinobeads, mixed HEK293/K-562/placenta lysate
[2] = affinity matrix / lysate: Lipid Kinobeads, mixed HeLa/Jurkat/K-562 lysate

| Structure (SMILES) | apparent dissociation constant (-log10 M) (ACVR1) | apparent dissociation constant (-log10 M) (ACVR1B) | apparent dissociation constant (-log10 M) (BTK) | apparent dissociation constant (-log10 M) (CDK5) | apparent dissociation constant (-log10 M) (CLK1) | apparent dissociation constant (-log10 M) (CSNK2A1; [1]) | apparent dissociation constant (-log10 M) (CSNK2A1; [2]) | apparent dissociation constant (-log10 M) (EGFR) | apparent dissociation constant (-log10 M) (EPHA4) | apparent dissociation constant (-log10 M) (EPHB1) | apparent dissociation constant (-log10 M) (EPHB4) | apparent dissociation constant (-log10 M) (ERBB4) | apparent dissociation constant (-log10 M) (LYN) | apparent dissociation constant (-log10 M) (MAP2K2) | apparent dissociation constant (-log10 M) (MAP2K3) | apparent dissociation constant (-log10 M) (MAP3K3) | apparent dissociation constant (-log10 M) (MAPK3) | apparent dissociation constant (-log10 M) (MAPK8) | apparent dissociation constant (-log10 M) (MARK2) | apparent dissociation constant (-log10 M) (MARK3) | apparent dissociation constant (-log10 M) (PCTK2) | apparent dissociation constant (-log10 M) (PI4KA; [1]) | apparent dissociation constant (-log10 M) (PI4KA; [2]) | apparent dissociation constant (-log10 M) (PIK3C2B; [2]) | apparent dissociation constant (-log10 M) (PIK3CA) | apparent dissociation constant (-log10 M) (PKMYT1) | apparent dissociation constant (-log10 M) (PLK4) | apparent dissociation constant (-log10 M) (PTK2B) | apparent dissociation constant (-log10 M) (RIPK2) | apparent dissociation constant (-log10 M) (RPS6KA2) | apparent dissociation constant (-log10 M) (RPS6KA3) | apparent dissociation constant (-log10 M) (STK3) | apparent dissociation constant (-log10 M) (TNIK) | apparent dissociation constant (-log10 M) (YES1) | apparent dissociation constant (-log10 M) (ZAK) | apparent dissociation constant (-log10 M) (PIK3C2B; [1]) |
| --- | --- | --- | --- | --- | --- | --- | --- | --- | --- | --- | --- | --- | --- | --- | --- | --- | --- | --- | --- | --- | --- | --- | --- | --- | --- | --- | --- | --- | --- | --- | --- | --- | --- | --- | --- | --- |
| COc1ccc(-c2ccc3c(N4CCOC[C@@H]4C)nc(N4CCOC[C@@H]4C)nc3n2)cc1CO [AZD8055] | < 6 | < 6 | < 6 | < 6 | < 6 | < 6 | < 6 | < 6 | < 6 | < 6 | < 6 | < 6 | < 6 | < 6 | < 6 | < 6 | < 6 | < 6 | < 6 | < 6 | < 6 | < 6 | < 6 | < 6 | 7.17 | < 6 | < 6 | < 6 | < 6 | < 6 | < 6 | < 6 | < 6 | < 6 | < 6 | – |
| CCNC(=O)Nc1ccc(-c2nc(N3CCOC[C@@H]3C)c3c(n2)C(C)(C)S(=O)(=O)C3)cc1 [CZ415] | < 6 | < 6 | < 6 | < 6 | < 6 | < 6 | < 6 | < 6 | < 6 | < 6 | < 6 | < 6 | < 6 | < 6 | < 6 | < 6 | < 6 | < 6 | < 6 | < 6 | < 6 | – | < 6 | < 6 | < 6 | < 6 | < 6 | < 6 | < 6 | < 6 | < 6 | < 6 | < 6 | < 6 | < 6 | < 6 |
